The values below are quoted from earlier work in patent publication US20220226302A1, “ENHANCEMENT OF CAMP SIGNALING AS A COMBINATION DRUG STRATEGY FOR THE TREATMENT OF DEPRESSION AND RELATED CONDITIONS” (Altos Neuroscience, Inc., priority 2021, published 2022).

Series [1] has as its system PDE4. Conditions: in vivo.
For series [2] the following is noted: in vivo.
Series [3] concerns β3 adrenergic receptor.
Series [4] deals with depression. Conditions: two acute treatment clinical trials, humans.
Series [5] relates to PDE4.
For series [6], the system named is depression. The following applies: patients with depression, small clinical trials.

For the compound `O=C(Nc1c(Cl)cncc1Cl)c1ccc(OC(F)F)c(OCC2CC2)c1` [Roflumilast, roflumilast], in series [1], the antidepressant effect entry is given as “no evidence of an antidepressant effect” and the pro-cognitive effect entry was “pro-cognitive effects”. Also, the brain penetration entry in series [2] is “can also reach the brain”.

With `CCOC(=O)COc1ccc2c(c1)C[C@@H](NC[C@H](O)c1cccc(Cl)c1)CC2` [amibegron], the brain penetration result in series [2] is “brain penetrant”. Also, in series [3], the “antidepressant-like effects in animals” value was “promising antidepressant-like effects in animals”. The “efficacy in clinical trials for depression” value in series [4] is on record as “failed to show efficacy in two acute treatment clinical trials”.

Regarding `COc1ccc(C2CNC(=O)C2)cc1OC1CCCC1` (centres unmarked) [rolipram], in series [5], the “phenotype of treated mice” value was “antidepressant and pro-cognitive phenotypes”. The “improvement in depression versus TCA medications” value in series [6] was “In none of these studies, however, did rolipram produce a greater improvement in depression than the TCA medications”.
